Assay results from patent EP0091302A1, “Beta-lactam derivatives” (BEECHAM GROUP PLC, priority 1982, dated 1983).

Experiments:
Experiment in all cases: Antibacterial activity (MIC)
Type in all cases: cell-based
[1] = tested on: Ps aeruginosa Dalgleish 10-^2
E. coli JT4 = conditions: Escherichia coli
N catarrhalis 1502 = tested on: N catarrhalis 1502
Ps. aeruginosa 10662 = conditions: Pseudomonas aeruginosa
E. coli ESS = conditions: Escherichia coli
Ps. aeruginosa Dalgleish = conditions: Pseudomonas aeruginosa
[2] = Pseudomonas aeruginosa, Ps. aeruginosa 10^-2

| Structure (SMILES) | MIC ([1]; Ps aeruginosa Dalgleish 10-^2) | MIC (E. coli JT4) | MIC (N catarrhalis 1502) | MIC (Ps. aeruginosa 10662) | MIC (E. coli ESS) | MIC (Ps. aeruginosa Dalgleish) | MIC [1, 2] |
| --- | --- | --- | --- | --- | --- | --- | --- |
| CO[C@@]1(NC(=O)C(c2cc(N)c(O)c(O)c2)S(=O)(=O)O)C(=O)N2[C@@H](C(=O)O)C(C)(C)S[C@@H]21 (stereo partly drawn) [Example 1, Disodium 6,β-[R,S-2-(5-amino-3,4-dihydroxyphenyl)-2-sulphoacetamido]-6,α-methoxy penicillanate] | 50 µg/mL | 25 µg/mL | < 0.2 µg/mL | 50 µg/mL | 5 µg/mL |  |  |
| CO[C@@]1(NC(=O)C(c2cc(O)c(O)c([N+](=O)[O-])c2)S(=O)(=O)O)C(=O)N2[C@@H](C(=O)O)C(C)(C)S[C@@H]21 (stereo partly drawn) [Example 2, Disodium 6,β-[R,S-2-(3,4-dihydroxy-5-nitrophenyl)-2-sulphoacetamido]-6,α-methoxypenicillanate] | 1 µg/mL | 2.5 µg/mL | < 0.02 µg/mL | 5 µg/mL | 0.2 µg/mL |  |  |
| CO[C@@]1(NC(=O)[C@@H](c2cc(OC(C)=O)c(OC(C)=O)c(Cl)c2Cl)S(=O)(=O)O)C(=O)N2[C@@H](C(=O)O)C(C)(C)S[C@@H]21 [Example 8, Disodium 6,β-[R-2-(4,5-diacetoxy-2,3-dichlorophenyl)-2-sulphoacetamido]-6,a-methoxypenicillanate] |  | 1 µg/mL |  | 2 µg/mL | 0.25 µg/mL | 2 µg/mL |  |
| CO[C@@]1(NC(=O)[C@@H](c2cc(O)c(O)c(Cl)c2)S(=O)(=O)O)C(=O)N2[C@@H](C(=O)O)C(C)(C)S[C@@H]21 [Example 4vi, Disodium 6,B-[R-2-(3-chloro-4,5-dihydroxyphenyl)-2-sulphoacetamido]-6,a-methoxypenicillanate] |  | 0.5 µg/mL | < 0.02 µg/mL | 2.5 µg/mL | 0.05 µg/mL |  | 0.5 µg/mL |
| CO[C@@]1(NC(=O)[C@@H](c2cc(OC(C)=O)c(OC(C)=O)cc2C)S(=O)(=O)O)C(=O)N2[C@@H](C(=O)O)C(C)(C)S[C@@H]21 [Example 6vi, Disodium 6,β-[R-2-(4,5-diacetoxy-2-methylphenyl)-2-sulphoacetamido]-6,a-methoxypenicillanate] |  | 16 µg/mL |  | 16 µg/mL | 4 µg/mL | 4 µg/mL |  |
| CO[C@@]1(NC(=O)[C@H](c2cc(OC(C)=O)c(OC(C)=O)cc2C)S(=O)(=O)O)C(=O)N2[C@@H](C(=O)O)C(C)(C)S[C@@H]21 [Example 6vii, Disodium 6,β-[S-2-(4,5-diacetoxy-2-methylphenyl)-2-sulphoacetamido]-6,a-methoxypenicillanate] |  | 64 µg/mL |  | 128 µg/mL | 32 µg/mL | 128 µg/mL |  |
| CO[C@@]1(NC(=O)[C@@H](c2cc(Cl)c(OC(C)=O)c(OC(C)=O)c2)S(=O)(=O)O)C(=O)N2[C@@H](C(=O)O)C(C)(C)S[C@@H]21 [Example 4v, Disodium 6,β-[R-2-(3-chloro-4,5-diacetoxyphenyl)-2-sulphoacetamido]-6,a-methoxypenicillanate] |  | 0.25 µg/mL | < 0.01 µg/mL | 0.5 µg/mL | 0.05 µg/mL |  | 0.25 µg/mL |
| CO[C@@]1(NC(=O)[C@@H](c2cc(C)c(OC(C)=O)c(OC(C)=O)c2)S(=O)(=O)O)C(=O)N2[C@@H](C(=O)O)C(C)(C)S[C@@H]21 [Example 7, Disodium 6,β-[R-2-(4,5-diacetoxy-3-methylphenyl)-2-sulphoacetamido]-6,a-methoxypenicillanate] |  | 8 µg/mL |  | 16 µg/mL | 0.5 µg/mL | 8 µg/mL |  |
| CO[C@@]1(NC(=O)[C@@H](c2cc(OC(C)=O)c(OC(C)=O)cc2Cl)S(=O)(=O)O)C(=O)N2[C@@H](C(=O)O)C(C)(C)S[C@@H]21 [Example 5, Disodium 6,B-[R-2-(2-chloro-4,5-diacetoxyphenyl)-2-sulphoacetamido]-6,a-methoxypenicillanate] |  | 0.5 µg/mL | < 0.02 µg/mL | 5 µg/mL | 0.2 µg/mL |  | 1 µg/mL |
